In patent US20250353891A1 (MEDIMMUNE LIMITED, priority 2022, published 2025):
Where “and” joins values, the source holds several entries; their conditions need not be identical. Equal entries are not always repeated. Starred links: 1 amine or outer side, 2 acyl side, 3 side chain; linkers in the order of their positions; H or OH if unused. Non-standard residues stand in square brackets, D forms with d. Residues, ends and D or L forms follow the SMILES beside them. Groups on a side chain read outwards from the residue. *: point of attachment. C20 diacid = O=C(O)CCCCCCCCCCCCCCCCCCC(=O)*; γGlu = O=C(O)[C@H](CCC(=O)[*:2])N[*:1]; αMeF = C[C@](N)(Cc1ccccc1)C(=O)O; AEEA = NCCOCCOCC(=O)O; Aib = CC(C)(N)C(=O)O

Key:
in vivo [1] = conditions: male, cynomolgus monkey, 10 nmol/kg
Excerpt: (§1) Selected test peptides (n=8) were profiled for pharmacokinetic (PK) properties in the mouse after single intravenous (i.v.) or subcutaneous (s.c.) dose. A subset (n=4) meeting the acceptance criteria was subsequently profiled in the dog (single i.v. dose) and non-human primate (single i.v. and s.c. dose). […] Low-binding plasticware containers were used during preparation and sample handling to avoid non-specific binding.
Non-human primate: PK was studied in non-naïve male cynomolgus monkeys. After dosing, PK samples were collected from the femoral vein. Blood of each sample was transferred into plastic micro centrifuge tubes containing EDTA-K2, inverted several times for proper mixing of contents and then placed on wet ice. The blood samples were centrifuged under refrigerated (2° C. to 8° C.) conditions within 30 minutes following sample collection to obtain plasma and stored at −60° C. to −90° C.° C. prior to analysis.
(§2) Samples analysis: Samples were analyzed by LC-MS/MS. Calibration standards were injected at the beginning and end of each batch and the determined concentration for each prepared standard was used to construct a calibration curve. Plasma and dose aliquot sample concentrations were determined from the plasma calibration curve.
(§3) Data analysis: Plasma concentration data was analyzed by non-compartmental analysis (NCA) using Phoenix Winnonlin v. 8.3.3.33. Linear trapezoidal rule was used for increasing values and log trapezoidal rule was used for decreasing values, applying uniform weighting for lambda_z calculations. Subcutaneous bioavailability was calculated as the ratio AUC(s.c.)0-inf/AUC(i.v.)0-inf. Reported values (Table 18) represent the mean of the individual estimates.

wildtype (WT) mice = assay: Glucose change in wildtype mice; format: in vivo, mouse; conditions: s.c., 60 min vs 0 min, no somatostatin pretreatment
Procedure, shortened: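 Wildtype mice aged 8-14 weeks, fasted 2 h, sometimes pre-treated with octreotide 10 mg/kg 30 min before peptide injection. Blood glucose by glucometer at -30, 0, 30, 60, 120, 180, 240 and 360 min; n=4-8/group, mice reused up to 3 times with ≥1 week wash-out.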

[2] = Mouse acute food intake study; format: in vivo; conditions: male C57Bl/6 mice, s.c., cumulative food intake at 24 hr vs vehicle
Procedure, shortened: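 Peptide or vehicle went subcutaneously (5 mL/kg) to 6-8 h-fasted male C57Bl/6 mice shortly before the dark phase, with groups balanced on body weight and 24-hour intake. Cumulative food consumption was derived from 48 h of automated BioDaq monitoring with free food and water access.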

[3] = biological target: human GLP-1 receptor (hGLP-1R) (Homo sapiens, UniProt P43220); assay: cAMP production (HTRF) in CHO cells expressing hGLP-1R; format: cell-based; design: expressed in transfected cells
human GLP-1 receptor (hGLP-1R), sequence (P43220 24-463): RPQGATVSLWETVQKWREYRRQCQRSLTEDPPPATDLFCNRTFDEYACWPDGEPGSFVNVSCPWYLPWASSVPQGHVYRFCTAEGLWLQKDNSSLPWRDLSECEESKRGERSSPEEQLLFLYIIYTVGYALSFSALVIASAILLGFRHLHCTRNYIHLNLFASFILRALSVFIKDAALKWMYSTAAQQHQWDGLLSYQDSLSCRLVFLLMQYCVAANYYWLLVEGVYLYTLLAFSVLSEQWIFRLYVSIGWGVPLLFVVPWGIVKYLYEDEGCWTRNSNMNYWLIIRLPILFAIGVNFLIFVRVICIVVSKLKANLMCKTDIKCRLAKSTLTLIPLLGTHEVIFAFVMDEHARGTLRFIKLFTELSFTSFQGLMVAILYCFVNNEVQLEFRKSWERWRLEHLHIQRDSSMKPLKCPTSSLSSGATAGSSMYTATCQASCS
Procedure, shortened: (§4)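 Potency values represent EC50 from 4-parameter logistic curves of HTRF % Delta F signal. Receptor-expressing CHO cells (hGCGR 2×10^5 cells/mL, hGLP-1R 1×10^5 cells/mL) were exposed for 30 min at room temperature before two-step cAMP detection.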

[4] = biological target: human glucagon receptor (hGCGR) (Homo sapiens, UniProt P47871); assay: cAMP production (HTRF) in CHO cells expressing hGCGR; format: cell-based; design: expressed in transfected cells; conditions: Table 6, peptides modified at position 17; cAMP in CHO hGCGR cells; geometric mean; read-out: hGluc-R EC50
human glucagon receptor (hGCGR), sequence (P47871 26-477): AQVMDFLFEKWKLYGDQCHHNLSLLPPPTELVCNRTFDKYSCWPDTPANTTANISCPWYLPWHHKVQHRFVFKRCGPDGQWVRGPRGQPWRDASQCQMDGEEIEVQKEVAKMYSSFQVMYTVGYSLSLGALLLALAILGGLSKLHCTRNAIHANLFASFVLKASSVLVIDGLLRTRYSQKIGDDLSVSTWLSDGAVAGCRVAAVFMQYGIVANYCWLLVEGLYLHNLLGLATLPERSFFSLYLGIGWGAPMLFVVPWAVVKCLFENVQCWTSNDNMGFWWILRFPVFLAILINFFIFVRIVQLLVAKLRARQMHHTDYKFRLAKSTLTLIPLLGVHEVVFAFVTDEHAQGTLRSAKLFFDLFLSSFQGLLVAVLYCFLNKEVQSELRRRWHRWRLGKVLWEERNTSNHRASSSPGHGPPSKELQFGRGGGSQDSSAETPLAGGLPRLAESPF
Procedure, shortened: as §4

in vivo [5] = conditions: 10 nmol/kg; for half-life: iv
Excerpt: as §1
After dosing, PK samples were collected from the dorsal metatarsal vein. Blood of each sample was transferred into plastic micro centrifuge tubes containing EDTA-K2, inverted several times for proper mixing of contents and then placed on wet ice. The blood samples were centrifuged at 4° C. to obtain plasma and stored at −75° C. prior to analysis.
as §2, §3

in vivo [6] = conditions: male, Beagle, dog, iv, 10 nmol/kg
Excerpt: as §1
Blood of each sample was transferred into plastic micro centrifuge tubes containing EDTA-K2, inverted several times for proper mixing of contents and then placed on wet ice.
as §2, §3

[7] = system: GLP-1R knockout (KO) mice; assay: Glucose change in GLP-1R knockout mice; format: in vivo, mouse; conditions: GLP-1R KO mice, s.c., 60 min vs 0 min, no somatostatin pretreatment
Procedure, shortened: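 GLP-1R knockout mice (n=4-8/group, sorted by body weight) were fasted 2 h, and in some studies pretreated with octreotide 10 mg/kg 30 min before peptide injection. Mice were reused up to 3 times with at least 1-week wash-out.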

[8] = Proteolytic resistance to FasSSGF containing porcine pancreatic pepsin; format: in vitro ADME; conditions: pig, simulated gastric fluid
Description: Stimulated Gastric Fluid (FasSSGF) Containing Porcine Pancreatic Pepsin Lyophilized porcine pancreatic pepsin (Sigma: P7012) was reconstituted to 0.5 mg/mL (˜2500 units/mL) in freshly prepared FasSSGF (Biorelevant media) to give the enzyme stock solution. Peptide stock solution was prepared to a concentration of 250 μM (˜1.0 mg/mL) in FasSSGF. 200 μL ([…], ˜250 units) of pepsin stock solution was added to 200 μL of peptide solution (1.0 mg/mL, ˜100 μg of peptide, ˜25 nmoles) and the mixture was co-incubated in a temperature-regulated incubator at 37° C. for the duration of the experiment. 30 μL aliquot of the peptide-enzyme mixture was periodically withdrawn (t=0, 5, 10, 15, and 30 min) and quenched immediately by addition of 80 μL of 0.1M ammonium bicarbonate solution in water/acetonitrile (4:1, pH 8) to arrest proteolytic activity. 30 μL aliquot was analyzed by analytical RP-HPLC. Analytical RP-HPLC method: Agilent Polaris C8-A column (4.6×100 mm, 3 micron) eluted with a linear binary gradient of 10-90% MeCN (0.1% TFA v/v) in water (0.1% TFA v/v) over either 10 or 15 mins at 1.5 mL min-1 at 40° C. with detection by UV absorption at 210 nm. Manual integration (AUC) allowed estimation of remaining intact peptide over the time course of the experiment.

recombinant Neprilysin = biological target: T1, recombinant Neprilysin (Homo sapiens, UniProt P08473); assay: Proteolytic resistance to neprilysin; format: in vitro ADME; conditions: pH 8.3
T1 construct: purchased R&D Systems 1182-ZNC-010
T1 sequence (P08473 52-750 limits assumed): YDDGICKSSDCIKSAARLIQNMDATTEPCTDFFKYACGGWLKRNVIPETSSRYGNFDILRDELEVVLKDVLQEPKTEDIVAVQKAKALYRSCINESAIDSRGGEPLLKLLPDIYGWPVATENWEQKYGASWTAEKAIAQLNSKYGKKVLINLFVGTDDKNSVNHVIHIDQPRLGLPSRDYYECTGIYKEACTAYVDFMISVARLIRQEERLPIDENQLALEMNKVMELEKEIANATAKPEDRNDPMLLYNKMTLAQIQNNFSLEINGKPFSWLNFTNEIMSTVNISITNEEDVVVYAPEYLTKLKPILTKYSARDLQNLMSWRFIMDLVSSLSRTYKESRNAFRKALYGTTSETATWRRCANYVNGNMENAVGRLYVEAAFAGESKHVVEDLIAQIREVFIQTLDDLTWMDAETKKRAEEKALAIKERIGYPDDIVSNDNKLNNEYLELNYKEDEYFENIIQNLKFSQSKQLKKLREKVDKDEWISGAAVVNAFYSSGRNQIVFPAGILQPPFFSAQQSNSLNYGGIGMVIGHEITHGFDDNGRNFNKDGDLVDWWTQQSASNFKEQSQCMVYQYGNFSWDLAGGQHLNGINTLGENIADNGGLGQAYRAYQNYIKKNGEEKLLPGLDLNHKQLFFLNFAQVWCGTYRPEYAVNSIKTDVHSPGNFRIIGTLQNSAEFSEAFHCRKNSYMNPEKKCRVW
Description: 10.0 μg (˜10 units) recombinant Neprilysin (R&D Systems: 1182-ZNC-010) was reconstituted to 100 μL (100 μg/mL, ˜100 units/mL) in assay buffer (50 mM Tris, 50 mM NaCl, 50 mM NaHCO3, adjusted to pH 8.3) to give the enzyme stock solution. Peptide stock solutions were prepared to a concentration of ˜250 μM (˜1.0 mg/mL of 4 kDa peptide) in assay buffer. 100 μL (10 μg, ˜10 units) of neprilysin stock solution was added to 100 μL of peptide stock solution (1.0 mg/mL, ˜100 μg of peptide) and the mixture was co-incubated in a temperature regulated incubator at 37° C. for the duration of the experiment. 25 μL aliquots (˜ 12.5 μg initial peptide) of the peptide-enzyme mixture were periodically withdrawn (t=0, 30 mins, 1 h, 2 h, 4 h and 24 h) and quenched immediately by addition to an equal volume ([…]) of 10% TFA (v/v) in 1:1 water/acetonitrile to arrest proteolytic activity. The quenched aliquot centrifuged at 7800 rpm, and 30 μL of the supernatant was analyzed by analytical RP-HPLC as follows: Analytical RP-HPLC method: Agilent Polaris C8-A column (4.6×100 mm, 3 micron) eluted with a linear binary gradient of 10-90% MeCN (0.1% TFA v/v) in water (0.1% TFA v/v) over either 10 or 15 mins at 1.5 mL min-1 at 40° C. with detection by UV absorption at 210 nm. Manual integration (AUC) allowed estimation of remaining intact peptide over the time course of the experiment.

[9] = Proteolytic resistance to FasSSIF/Pancreatin; format: in vitro ADME; conditions: simulated intestinal fluid
Procedure, shortened: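 Peptide (1.0 mg) in pre-warmed FasSSIF, proteolysis started with fresh FasSSIF/USP Pancreatin and held at 37 °C. Aliquots at 0, 5, 10, 15, 30 min quenched in 10% TFA; remaining intact peptide estimated by RP-HPLC peak area, UV 210 nm.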

CC(C)C[C@H](NC(=O)[C@H](Cc1c[nH]c2ccccc12)NC(=O)[C@H](CCC(N)=O)NC(=O)[C@@H](NC(=O)[C@H](Cc1ccccc1)NC(=O)[C@H](CC(=O)O)NC(=O)[C@H](CCCNC(=N)N)NC(=O)[C@H](C)NC(=O)[C@H](CCCNC(=N)N)NC(=O)[C@H](CCCCNC(=O)COCCOCCNC(=O)COCCOCCNC(=O)CC[C@H](NC(=O)CCCCCCCCCCCCCCCCC(=O)O)C(=O)O)NC(=O)[C@@H](NC(=O)[C@H](CC(=O)O)NC(=O)[C@H](CC(C)C)NC(=O)[C@](C)(Cc1ccccc1)NC(=O)[C@H](CCCCN)NC(=O)[C@H](CO)NC(=O)[C@@H](NC(=O)[C@H](CC(=O)O)NC(=O)[C@H](CO)NC(=O)[C@@H](NC(=O)[C@H](Cc1ccccc1)NC(=O)[C@@H](NC(=O)CNC(=O)[C@H](CCC(N)=O)NC(=O)C(C)(C)NC(=O)[C@@H](N)Cc1c[nH]cn1)[C@@H](C)O)[C@@H](C)O)C(C)C)[C@@H](C)O)C(C)C)C(=O)N[C@@H](CC(C)C)C(=O)N[C@@H](CCC(=O)O)C(=O)NC(C)(C)C(=O)NCC(=O)O [Peptide 188, H-Aib-Q-G-T-F-T-S-D-V—S-K-αMePhe-L-D-T-K-R-A-R-D-F-V-Q-W-L-L-E-Aib-G-acid]
bioavailability (in vivo [1]): 79% | half-life (in vivo [1]; iv): 67 h | WT % glucose change 60 min (wildtype (WT) mice; 10 nmol/kg): −23.2% | WT % glucose change 60 min (wildtype (WT) mice; 30 nmol/kg): −31.3% | 24 hr % Vehicle Food Intake ([2]; dose 1 nmol/kg): 99.9% | 24 hr % Vehicle Food Intake ([2]; dose 3 nmol/kg): 80.6% | 24 hr % Vehicle Food Intake ([2]; dose 10 nmol/kg): 60.7% and 49.8% | EC50 ([3]; Table 6, peptides modified at position 17, cAMP in CHO hGLP-1R cells, geometric mean, read-out: hGLP-1R EC50): 0.0208 nM | % Relative Potency Ratio ([3]; Table 6, % GLP-1R activity relative to GLP-1 / % GlucR activity relative to glucagon): 3.3 | EC50 [4]: 0.0347 nM | bioavailability (in vivo [5]; male, C57BL/6, mouse): 98% | half-life (in vivo [5]; male, C57BL/6, mouse): 7.9 h | half-life (in vivo [6]): 71 h | GLP-1R KO % glucose change - 60 min ([7]; 10 nmol/kg): 64% | GLP-1R KO % glucose change - 60 min ([7]; 30 nmol/kg): 44.6%

CC[C@H](C)[C@H](NC(=O)C(C)(C)NC(=O)[C@H](CCC(N)=O)NC(=O)[C@@H](NC(=O)[C@](C)(Cc1ccccc1)NC(=O)[C@H](CC(=O)O)NC(=O)[C@H](CCCCNC(=O)COCCOCCNC(=O)COCCOCCNC(=O)CC[C@H](NC(=O)CC[C@H](NC(=O)CCCCCCCCCCCCCCCCCCC(=O)O)C(=O)O)C(=O)O)NC(=O)[C@H](C)NC(=O)[C@H](C)NC(=O)[C@H](CCCNC(=N)N)NC(=O)[C@H](CO)NC(=O)[C@H](CC(=O)O)NC(=O)[C@H](CC(C)C)NC(=O)[C@](C)(Cc1ccccc1)NC(=O)[C@H](CCCCN)NC(=O)[C@H](CO)NC(=O)[C@@H](NC(=O)[C@H](CC(=O)O)NC(=O)[C@H](CO)NC(=O)[C@@H](NC(=O)[C@](C)(Cc1ccccc1)NC(=O)[C@H](CO)NC(=O)CNC(=O)[C@H](Cc1c[nH]cn1)NC(=O)C(C)(C)NC(=O)[C@@H](N)Cc1c[nH]cn1)[C@@H](C)O)C(C)C)C(C)C)C(=O)N[C@@H](C)C(=O)N[C@@H](CC(N)=O)C(=O)N[C@H](C(N)=O)[C@@H](C)O [Peptide 229, H-Aib-H-G-S-αMePhe-T-S-D-V—S-K-αMePhe-L-D-S-R-A-A-K (E-(O2Oc)-(O2Oc)-γE-γE-C20diacid) 20-D-αMePhe-V-Q-Aib-I-A-N-T-amide] (H-H[Aib]HGS[αMeF]TSDVSK[αMeF]LDSRAAK([AEEA-AEEA-γGlu-γGlu-C20 diacid])D[αMeF]VQ[Aib]IANT-NH2; N-terminus assumed)
remaining at 5 min, 125 µM [8]: 100% | remaining at 10 min, 125 µM [8]: 97% | remaining at 0.25 h, 125 µM [8]: 91% | remaining at 0.5 h, 125 µM [8]: 79% | remaining at 0.5 h (recombinant Neprilysin; isolated enzyme neprilysin): 100% | remaining at 2 h (recombinant Neprilysin; isolated enzyme neprilysin): 100% | remaining at 4 h (recombinant Neprilysin; isolated enzyme neprilysin): 100% | remaining at 24 h (recombinant Neprilysin; isolated enzyme neprilysin): 100% | % intact peptide over time (recombinant Neprilysin): 100% | remaining at 5 min, 3.3 mg/mL [9]: 60% | remaining at 10 min, 3.3 mg/mL [9]: 46% | remaining at 0.25 h, 3.3 mg/mL [9]: 33% | remaining at 0.5 h, 3.3 mg/mL [9]: 26% | bioavailability (in vivo [5]; mouse): 86% | half-life (in vivo [5]; mouse): 19 h
